Among the test systems are OVCAR-4 ovarian; COLO 205 colon; HL-60(TB) leukemia; HOP-92 NSCLC; A498 renal; OVCAR-8 ovarian; MOLT-4 leukemia; HOP-62 NSCLC; HCT-15 colon; SN12C renal.
Holding throughout (experiment): DTP human tumour cell line panel, 48 h

Values joined by “and” are separate entries in the source; they are usually repeats but may differ in a detail not shown here. Equal values may be shown once.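 How tested: cells in 96-well plates exposed to compound for 48 hours at five concentrations. TGI: concentration producing complete growth inhibition.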

For `CC(C)OC(=O)c1ccc(NCc2cc(O)ccc2O)cc1`, the TGI with OVCAR-4 ovarian was 18.7 µM; in the assay with COLO 205 colon it was 9.48 µM; with HL-60(TB) leukemia, 1.62 µM; with HOP-92 NSCLC, 5.03 µM; in the assay on A498 renal, above 100 µM; in the assay on OVCAR-8 ovarian, above 21.9 µM. For the same compound, the TGI in the assay on MOLT-4 leukemia was determined as 10.3 µM; in the assay with HOP-62 NSCLC it was 31.9 µM; in the assay with HCT-15 colon it was 9.21 µM; in the assay with SN12C renal, 7.3 µM.
For the compound `CC(C)c1cccc(C(C)C)c1NC(=O)C(=O)Cc1nc2ccc([N+](=O)[O-])cc2[nH]c1=O`, the TGI with OVCAR-4 ovarian, in the assay with COLO 205 colon, with HL-60(TB) leukemia, in the assay on HOP-92 NSCLC, in the assay on A498 renal and in the assay on MOLT-4 leukemia was above 100 µM each time. In the assay with HCT-15 colon, this compound returned a TGI of 48.9 µM.
On to `CC(C)(C)OC(=O)NC1CCCC1C(=O)C1=CCCC1` (centres undefined), for which the TGI in the assay on OVCAR-4 ovarian, in the assay with COLO 205 colon, in the assay with HL-60(TB) leukemia, with HOP-92 NSCLC, with A498 renal and in the assay on OVCAR-8 ovarian was above 100 µM in each case. The TGI in the assay on MOLT-4 leukemia, in the assay with HOP-62 NSCLC, in the assay on HCT-15 colon and in the assay on SN12C renal was above 100 µM in each case.
For `Cc1cccc(C2ON=C(c3ccccc3)N2C23CC4CC(CC(C4)C2)C3)c1` (centres undefined), the TGI with OVCAR-4 ovarian, with COLO 205 colon, in the assay with HL-60(TB) leukemia, in the assay on HOP-92 NSCLC, in the assay on A498 renal and in the assay on OVCAR-8 ovarian was above 10 µM in each case. Further, the TGI with MOLT-4 leukemia, with HOP-62 NSCLC, in the assay with HCT-15 colon and in the assay on SN12C renal was above 10 µM throughout.
As for `CC(=O)OI1NC(=O)c2ccccc21`, the TGI with OVCAR-4 ovarian, in the assay with COLO 205 colon, with HL-60(TB) leukemia, with HOP-92 NSCLC, in the assay on A498 renal and in the assay on OVCAR-8 ovarian was above 100 µM in each case. The TGI in the assay on MOLT-4 leukemia, in the assay with HOP-62 NSCLC, in the assay on HCT-15 colon and with SN12C renal was above 100 µM in each case.
`Clc1ccc(Cl)c(N=Nc2cc3c4c(c2)CCN4CCC3)c1`: the TGI with OVCAR-4 ovarian, in the assay with COLO 205 colon, with HL-60(TB) leukemia, with HOP-92 NSCLC, with A498 renal and in the assay with OVCAR-8 ovarian was above 10 µM each time. In addition, the concentration for total growth inhibition (TGI) with MOLT-4 leukemia, with HOP-62 NSCLC, in the assay with HCT-15 colon and in the assay with SN12C renal was above 10 µM in each case.
On to `CSc1nc(=S)[nH]c2c1c(C)nn2-c1ccccc1`, for which the TGI in the assay with OVCAR-4 ovarian is 40.9 µM; in the assay with COLO 205 colon, 56.5 µM; in the assay on HL-60(TB) leukemia, above 100 µM; in the assay on HOP-92 NSCLC it was 35.7 µM; in the assay on A498 renal it was 80.6 µM; in the assay on MOLT-4 leukemia, 45.3 µM. The TGI was above 100 µM with HOP-62 NSCLC, above 100 µM with HCT-15 colon and 52.7 µM in the assay on SN12C renal.
Take `Brc1ccc(C2C3CSc4ccccc4C3=NN2c2ccccc2)cc1` (centres undefined): the TGI with OVCAR-4 ovarian was 91.7 µM; with COLO 205 colon it was above 100 µM; with HL-60(TB) leukemia it was above 100 µM; in the assay with HOP-92 NSCLC it was above 100 µM; with A498 renal, above 100 µM; in the assay with OVCAR-8 ovarian, above 100 µM. Moreover, the TGI in the assay on MOLT-4 leukemia, with HOP-62 NSCLC, in the assay on HCT-15 colon and in the assay on SN12C renal was above 100 µM in each case.
For `COC(=O)c1ccc2c(c1)CC1(C2)Cc2cc3c(cc2C1)CCC3`, the TGI in the assay with OVCAR-4 ovarian, with HL-60(TB) leukemia, in the assay with HOP-92 NSCLC, in the assay on A498 renal, in the assay with OVCAR-8 ovarian and in the assay on MOLT-4 leukemia was above 100 µM each time. Besides, the TGI in the assay with HOP-62 NSCLC and with HCT-15 colon was above 100 µM throughout.
Turning to `CC(C)N(C(=O)C12C3C4C1C1C2C3C41C#N)C(C)C` (centres undefined), the total growth inhibition concentration (TGI) in the assay on OVCAR-4 ovarian is above 100 µM; in the assay on COLO 205 colon, above 100 µM; in the assay with HL-60(TB) leukemia it was above 59 µM; in the assay on HOP-92 NSCLC, above 100 µM; with A498 renal, above 100 µM; with OVCAR-8 ovarian it was above 100 µM. For the same compound, the concentration for total growth inhibition (TGI) in the assay with MOLT-4 leukemia, in the assay on HOP-62 NSCLC, in the assay with HCT-15 colon and in the assay on SN12C renal was above 100 µM throughout.
As for `CC(=O)Nc1[nH]n(C)c(=O)c1-c1nnc(C)s1`, the TGI in the assay on OVCAR-4 ovarian, in the assay on COLO 205 colon, with HL-60(TB) leukemia, in the assay on HOP-92 NSCLC, in the assay with A498 renal and in the assay on OVCAR-8 ovarian was above 100 µM in each case. Moreover, the TGI with MOLT-4 leukemia, in the assay with HOP-62 NSCLC, with HCT-15 colon and with SN12C renal was above 100 µM each time.
Consider `C[C@]12C=CC(=O)C=C1CC[C@@H]1[C@@H]2CC[C@@]2(C)[C@H]1CC[C@]2(O)C(N)=O`, for which the TGI in the assay with OVCAR-4 ovarian, with COLO 205 colon, in the assay with HL-60(TB) leukemia, in the assay with HOP-92 NSCLC, in the assay with A498 renal and in the assay on OVCAR-8 ovarian was above 100 µM each time. Also, the TGI in the assay on MOLT-4 leukemia, in the assay with HOP-62 NSCLC, in the assay with HCT-15 colon and in the assay on SN12C renal was above 100 µM each time.
`COc1cc2c(c(OC)c1OC)-c1ccc(SC)c(=O)cc1[C@@H](NCc1ccc(F)cc1)CC2`: the TGI with OVCAR-4 ovarian is above 100 µM; with COLO 205 colon it was below 0.0075 µM; in the assay with HL-60(TB) leukemia it was above 100 µM; in the assay with HOP-92 NSCLC it was 75 µM and 7.99 µM; in the assay with A498 renal it was 0.0265 µM; in the assay on OVCAR-8 ovarian, 75 µM. Also, the TGI was 75 µM and > 100 µM in the assay with MOLT-4 leukemia; 75 µM and 20.6 µM in the assay with HOP-62 NSCLC; 7.64 µM with HCT-15 colon; 20.8 µM in the assay on SN12C renal.
As for `CC1(C)CCN2C(=O)C34CCCC3CC21S4` (centres undefined), the TGI in the assay with OVCAR-4 ovarian, in the assay with COLO 205 colon, in the assay with HL-60(TB) leukemia, in the assay on HOP-92 NSCLC, with A498 renal and in the assay on OVCAR-8 ovarian was above 100 µM in each case. Moreover, the TGI in the assay with MOLT-4 leukemia, with HOP-62 NSCLC, in the assay with HCT-15 colon and in the assay with SN12C renal was above 100 µM in each case.

Source of the values: PubChem BioAssay (NCI).
